Results from patent US8524770B2, “Wool care composition” (Director General, Defence Research & Development …, priority 2009, dated 2013).

How the values were obtained:
clothes moths [1] = details: Abbott & Billings 1935, Journal of Economic Entomology; cited from earlier work
clothes moths [2] = experiment: Protection of woollen articles / repellency against clothes moths; assay type: in vivo; details: confirmed by the present inventors
Description: Conventionally naphthalene or Paradichlorobenzene is known in the art to be used to protect woollen and fur-feather lined articles from insect damage during their storage. But these above compounds are ineffective against clothes moths and thus unable to provide protection to the woollen items as established by Abbott & Billings of USA in 1935 and published their work in the Journal of Economic Entomology on page 493-495 as entitled “Further work showing that Paradichlorobenzene, Naphthalene and cedar oils are ineffective as repellents against clothes moth”. The ineffectiveness of the naphthalene balls in protection of woollen articles from insect pests is also confirmed by the present inventors.

Compound | Effectiveness as repellent against clothes moths (clothes moths [1]) | Protection of woollen articles from insect pests (clothes moths [2])
Clc1ccc(Cl)cc1 [Paradichlorobenzene] | ineffective | –
c1ccc2ccccc2c1 [naphthalene] | ineffective | ineffectiveness
